Some test systems named below: CCRF-CEM; DU-145; EKVX; HCC 2998; HCT-15; HOP-92; M14; MCF7; MDA-MB-231; MDA-MB-435; OVCAR-4; OVCAR-8; SF-268; SF-295; SK-MEL-28; SN12C; SR; TK-10; UO-31; RXF 393.
Common to all, as to experiment: NCI-60 cell line screen, 48 h

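These data come from cells grown in 96-well plates and exposed to compound for 48 hours at five concentrations. GI50 is the concentration that inhibits growth by half.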 Calls of active or inactive are those of the source. No stated cut-off is given here; in the data, active = GI50 up to about 1.1 µM and inactive = higher.

Turning to `CC(=O)OC1CC2c3cccc4c3C(CC2N(C)C1=O)CN4C(=O)c1ccccc1` (stereo not given), the GI50 is 20.7 µM (inactive) with CCRF-CEM; 16.6 µM (inactive) in the assay on DU-145; 22.1 µM (inactive) in the assay with EKVX; 15 µM (inactive) with HCC 2998; 14.5 µM with HCT-15; 4.25 µM (inactive) in the assay on HOP-92. In addition, the GI50 in the assay on M14 is 22.1 µM (inactive); with MCF7 it was 23.1 µM (inactive); in the assay with MDA-MB-231 it was 12.6 µM (inactive); in the assay on MDA-MB-435 it was 18.4 µM (inactive); in the assay on OVCAR-4 it was 22.1 µM (inactive); in the assay with OVCAR-8, 16.4 µM (inactive). Moreover, the GI50 in the assay with SF-268 was 2.2 µM (inactive); in the assay on SF-295 it was 23.2 µM (inactive); in the assay on SK-MEL-28, 21.6 µM (inactive); in the assay on SN12C it was 18.8 µM (inactive); in the assay with SR, 22.5 µM (inactive); in the assay with TK-10, 29.8 µM (inactive). Also, the GI50 with UO-31 is 16 µM (inactive).
With `O=C1C2=Cc3ccccc3OC2(O)Oc2ccccc21` (stereo not given), the GI50 with CCRF-CEM was > 100 µM (inactive); in the assay on DU-145 it was > 100 µM (inactive); in the assay with EKVX, > 100 µM (inactive); with HCC 2998, > 100 µM (inactive); in the assay with HCT-15, above 100 µM; in the assay with HOP-92, > 100 µM (inactive). The GI50 with M14, in the assay on MCF7, with MDA-MB-231, in the assay with MDA-MB-435, in the assay on OVCAR-4 and in the assay with OVCAR-8 was > 100 µM (inactive) each time. Further, the GI50 in the assay with RXF 393, in the assay on SF-268, in the assay with SF-295, with SK-MEL-28, with SN12C and in the assay on SR was > 100 µM (inactive) in each case. In the assay with TK-10, the GI50 is > 100 µM (inactive).
For `COc1ccc(OCc2ccc3nc(-c4ccccc4)c(Cl)nc3c2)cc1`, the GI50 was 15.8 µM (inactive) in the assay on CCRF-CEM; > 100 µM (inactive) with DU-145; 50.5 µM (inactive) in the assay with EKVX; 27.7 µM (inactive) with HCC 2998; 50.7 µM with HCT-15; 14.5 µM (inactive) with HOP-92. The GI50 with M14 was 33.9 µM (inactive); in the assay with MCF7 it was 37.6 µM (inactive); with MDA-MB-231, 11.7 µM (inactive); in the assay on MDA-MB-435, 50.6 µM (inactive); in the assay on OVCAR-4, 19.4 µM (inactive); with OVCAR-8 it was 44.7 µM (inactive). The GI50 in the assay with SF-268 is 25.2 µM (inactive); with SF-295, 21.7 µM (inactive); with SK-MEL-28, 47.3 µM (inactive); with SN12C, 24.3 µM (inactive); in the assay with SR it was 28.2 µM (inactive); in the assay on TK-10, 17.7 µM (inactive). Further, in the assay on UO-31, the GI50 was 62.8 µM (inactive).
For `COc1ccc(NC(S)=Nc2ccccc2)cc1`, the GI50 in the assay on DU-145 was > 100 µM (inactive); with EKVX, 96.4 µM (inactive); in the assay with HCC 2998, > 100 µM (inactive); in the assay on HCT-15, above 100 µM; with HOP-92 it was > 100 µM (inactive); in the assay on M14 it was > 100 µM (inactive). Moreover, the GI50 with MCF7 was > 100 µM (inactive); in the assay with MDA-MB-231, > 100 µM (inactive); in the assay on MDA-MB-435 it was > 100 µM (inactive); with OVCAR-4, > 100 µM (inactive); in the assay on OVCAR-8, > 100 µM (inactive); with RXF 393 it was 98.2 µM (inactive). Also, the GI50 with SF-268, in the assay on SF-295, in the assay on SK-MEL-28, in the assay on SN12C, in the assay with SR and with TK-10 was > 100 µM (inactive) throughout. Moreover, the GI50 in the assay on UO-31 is > 100 µM (inactive).
For the compound `CCC(C)C(NC(=O)C(CCCCN)NC(=O)C(NC(=O)C(CCC(N)=O)NC(=O)C(CCCNC(=N)N)NC(C)=O)C(C)CC)C(=O)NC(Cc1c[nH]c2ccccc12)C(=O)NC(Cc1ccccc1)C(=O)NC(CCC(N)=O)C(=O)NC(CC(N)=O)C(=O)NC(CCCNC(=N)N)C(=O)NC(CCCNC(=N)N)C(=O)NC(CCSC)C(=O)NC(CCCCN)C(=O)NC(Cc1c[nH]c2ccccc12)C(=O)NC(CCCCN)C(=O)NC(CCCCN)C(N)=O` (stereo not given), the GI50 in the assay on CCRF-CEM is 22.4 µM (inactive); in the assay on DU-145, > 50 µM (inactive); with EKVX, > 50 µM (inactive); in the assay with HCC 2998 it was > 50 µM (inactive); in the assay with HCT-15, above 50 µM; with HOP-92, > 50 µM (inactive). For the same compound, the GI50 in the assay on M14 was 17.9 µM (inactive); in the assay with MCF7, 29.8 µM (inactive); with MDA-MB-231 it was 14.3 µM (inactive); with MDA-MB-435, 17.5 µM (inactive); in the assay with OVCAR-4, > 50 µM (inactive); in the assay on OVCAR-8 it was 49.2 µM (inactive). Besides, the GI50 in the assay with RXF 393 is > 50 µM (inactive); in the assay on SF-268, 45.1 µM (inactive); in the assay on SF-295 it was > 50 µM (inactive); in the assay on SK-MEL-28 it was > 50 µM (inactive); with SN12C it was 16.5 µM (inactive); in the assay on SR, > 50 µM (inactive). The GI50 with TK-10 is > 50 µM (inactive).
As for `C=C1C(C(=O)OC)[C@H]1C(=O)OC` (stereo not given in full), the GI50 in the assay on DU-145 was > 100 µM (inactive); in the assay on EKVX, > 100 µM (inactive); with HCC 2998 it was > 100 µM (inactive); in the assay on HCT-15 it was above 100 µM; in the assay on HOP-92, > 100 µM (inactive); in the assay on M14 it was > 100 µM (inactive). In addition, the GI50 with MCF7, in the assay with MDA-MB-231, in the assay on MDA-MB-435, with OVCAR-4, in the assay with OVCAR-8 and with RXF 393 was > 100 µM (inactive) each time. Moreover, the GI50 in the assay on SF-268, in the assay with SF-295, in the assay on SK-MEL-28, with SN12C, in the assay with SR and in the assay on TK-10 was > 100 µM (inactive) each time. Besides, in the assay with UO-31, the GI50 is > 100 µM (inactive).
Take `NC(=S)N/N=C/c1c[nH]c2ccccc12`: the GI50 in the assay with CCRF-CEM was 10.8 µM (inactive); with DU-145 it was > 100 µM (inactive); in the assay on EKVX it was 2.86 µM (inactive); in the assay with HCT-15 it was above 100 µM; with HOP-92, 21.6 µM (inactive); in the assay with M14, > 100 µM (inactive). The GI50 in the assay with MCF7, in the assay on MDA-MB-231, with MDA-MB-435, in the assay with OVCAR-4, in the assay with OVCAR-8 and with RXF 393 was > 100 µM (inactive) each time. In addition, the GI50 in the assay with SF-268, in the assay with SF-295, with SK-MEL-28, in the assay with SN12C, in the assay with SR and in the assay with TK-10 was > 100 µM (inactive) in each case. Moreover, the GI50 in the assay on UO-31 is > 100 µM (inactive).
For `C/C(=N\NC(=N)N)C(CN(C)C)C(c1ccccc1)c1c(O)c2ccccc2oc1=O` (stereo not given), the GI50 with CCRF-CEM is > 100 µM (inactive); with DU-145 it was > 100 µM (inactive); with EKVX it was > 100 µM (inactive); with HCC 2998, > 100 µM (inactive); with HCT-15, above 100 µM; in the assay with HOP-92, 4.91 µM (inactive). Moreover, the GI50 in the assay on M14, with MCF7, in the assay with MDA-MB-231, in the assay on MDA-MB-435, with OVCAR-4 and with OVCAR-8 was > 100 µM (inactive) throughout. For the same compound, the GI50 in the assay with SF-268, with SF-295, in the assay with SK-MEL-28, in the assay on SN12C, with SR and in the assay on TK-10 was > 100 µM (inactive) each time. Further, in the assay with UO-31, the GI50 was > 100 µM (inactive).
Regarding `COc1ccc(C2CC(c3ccc4ccccc4c3O)=NN2)cc1OC` (stereo not given), the GI50 was 14.9 µM (inactive) in the assay on CCRF-CEM; 77.6 µM (inactive) in the assay on DU-145; 45.6 µM (inactive) in the assay with HCC 2998; 41.7 µM in the assay on HCT-15; > 100 µM (inactive) in the assay on HOP-92; 66.2 µM (inactive) in the assay with M14. For the same compound, the GI50 with MCF7 is 32.7 µM (inactive); in the assay with MDA-MB-231 it was 25.2 µM (inactive); in the assay on MDA-MB-435, 27 µM (inactive); with OVCAR-4, 92.7 µM (inactive); with OVCAR-8, 43.6 µM (inactive); in the assay on RXF 393, 74.1 µM (inactive). Further, the GI50 in the assay with SF-268 was 47.5 µM (inactive); with SF-295, 44.8 µM (inactive); with SK-MEL-28, 76.4 µM (inactive); with SN12C, 48.6 µM (inactive); with SR, 15.6 µM (inactive); in the assay with TK-10 it was 95.1 µM (inactive). Further, in the assay with UO-31, the GI50 is 46.2 µM (inactive).
Take `O=C(C#Cc1cn(C2CC(O)C(CO)O2)c(=O)[nH]c1=O)c1ccccc1` (stereo not given): the GI50 is > 100 µM (inactive) with DU-145; > 100 µM (inactive) with EKVX; > 100 µM (inactive) with HCC 2998; above 100 µM in the assay on HCT-15; 29.5 µM (inactive) with HOP-92; 28.5 µM (inactive) with M14. For the same compound, the GI50 with MCF7 is 33.3 µM (inactive); in the assay with MDA-MB-231, > 100 µM (inactive); in the assay with MDA-MB-435, 58.9 µM (inactive); in the assay with OVCAR-4 it was 51.4 µM (inactive); in the assay on OVCAR-8, > 100 µM (inactive); in the assay on RXF 393 it was 17.5 µM (inactive). Further, the GI50 with SF-268 was > 100 µM (inactive); in the assay with SF-295 it was > 100 µM (inactive); with SK-MEL-28, 39.5 µM (inactive); in the assay on SN12C, 31.8 µM (inactive); in the assay on SR it was 24.8 µM (inactive); with TK-10, > 100 µM (inactive). The GI50 with UO-31 was > 100 µM (inactive).

(Values after ChEMBL document CHEMBL1201862, “PubChem BioAssay data set” (2004).)
